# How the values were obtained:
# Experiment in all cases: Eurofins kinase panel
# Type in all cases: biochemical
# Settings in all cases: read-out: Inhibition rate (%)
# AMPKα1(h) = target: T1, AMPKα1(h) (Homo sapiens, UniProt Q13131)
# T1 construct: purchased Eurofins (KinaseProfiler)
# c-RAF(h) = target: T2, c-RAF(h) (Homo sapiens, UniProt P04049)
# T2 construct: purchased Eurofins (KinaseProfiler)
# CaMKIIβ(h) = target: T3, CaMKIIβ(h) (Homo sapiens, UniProt Q13554)
# T3 construct: purchased Eurofins (KinaseProfiler)
# BMPR2(h) = target: T4, BMPR2(h) (Homo sapiens, UniProt Q13873)
# T4 construct: purchased Eurofins (KinaseProfiler)
# T4 sequence (Q13873 27-1038): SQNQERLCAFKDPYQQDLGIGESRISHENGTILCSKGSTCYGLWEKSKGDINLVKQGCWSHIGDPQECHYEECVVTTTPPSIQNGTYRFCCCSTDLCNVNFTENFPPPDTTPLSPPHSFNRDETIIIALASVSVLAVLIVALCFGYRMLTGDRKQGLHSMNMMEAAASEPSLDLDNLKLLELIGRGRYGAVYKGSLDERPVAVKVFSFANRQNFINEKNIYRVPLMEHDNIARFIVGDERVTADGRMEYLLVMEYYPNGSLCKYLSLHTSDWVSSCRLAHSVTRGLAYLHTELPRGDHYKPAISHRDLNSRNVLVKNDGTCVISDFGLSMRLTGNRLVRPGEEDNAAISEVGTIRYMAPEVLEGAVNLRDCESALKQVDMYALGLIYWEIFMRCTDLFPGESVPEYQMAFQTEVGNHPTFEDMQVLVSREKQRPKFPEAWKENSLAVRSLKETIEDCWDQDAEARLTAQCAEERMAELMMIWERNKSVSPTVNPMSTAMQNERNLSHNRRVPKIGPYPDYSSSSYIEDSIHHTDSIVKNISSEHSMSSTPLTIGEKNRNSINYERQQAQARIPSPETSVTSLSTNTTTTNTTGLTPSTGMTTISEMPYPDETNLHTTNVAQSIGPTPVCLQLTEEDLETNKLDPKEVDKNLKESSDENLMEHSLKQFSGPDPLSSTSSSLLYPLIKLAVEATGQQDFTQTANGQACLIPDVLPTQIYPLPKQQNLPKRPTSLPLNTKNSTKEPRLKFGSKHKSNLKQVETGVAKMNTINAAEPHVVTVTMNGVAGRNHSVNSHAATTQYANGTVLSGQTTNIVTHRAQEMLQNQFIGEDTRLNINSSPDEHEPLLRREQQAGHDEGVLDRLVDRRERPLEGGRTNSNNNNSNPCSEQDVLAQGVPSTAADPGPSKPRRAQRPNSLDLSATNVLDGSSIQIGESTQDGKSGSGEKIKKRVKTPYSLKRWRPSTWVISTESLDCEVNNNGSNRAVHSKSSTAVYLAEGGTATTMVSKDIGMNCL
# HIPK2(h) = target: T5, HIPK2(h) (Homo sapiens, UniProt Q9H2X6)
# T5 construct: purchased Eurofins (KinaseProfiler)
# T5 sequence (Q9H2X6 whole entry): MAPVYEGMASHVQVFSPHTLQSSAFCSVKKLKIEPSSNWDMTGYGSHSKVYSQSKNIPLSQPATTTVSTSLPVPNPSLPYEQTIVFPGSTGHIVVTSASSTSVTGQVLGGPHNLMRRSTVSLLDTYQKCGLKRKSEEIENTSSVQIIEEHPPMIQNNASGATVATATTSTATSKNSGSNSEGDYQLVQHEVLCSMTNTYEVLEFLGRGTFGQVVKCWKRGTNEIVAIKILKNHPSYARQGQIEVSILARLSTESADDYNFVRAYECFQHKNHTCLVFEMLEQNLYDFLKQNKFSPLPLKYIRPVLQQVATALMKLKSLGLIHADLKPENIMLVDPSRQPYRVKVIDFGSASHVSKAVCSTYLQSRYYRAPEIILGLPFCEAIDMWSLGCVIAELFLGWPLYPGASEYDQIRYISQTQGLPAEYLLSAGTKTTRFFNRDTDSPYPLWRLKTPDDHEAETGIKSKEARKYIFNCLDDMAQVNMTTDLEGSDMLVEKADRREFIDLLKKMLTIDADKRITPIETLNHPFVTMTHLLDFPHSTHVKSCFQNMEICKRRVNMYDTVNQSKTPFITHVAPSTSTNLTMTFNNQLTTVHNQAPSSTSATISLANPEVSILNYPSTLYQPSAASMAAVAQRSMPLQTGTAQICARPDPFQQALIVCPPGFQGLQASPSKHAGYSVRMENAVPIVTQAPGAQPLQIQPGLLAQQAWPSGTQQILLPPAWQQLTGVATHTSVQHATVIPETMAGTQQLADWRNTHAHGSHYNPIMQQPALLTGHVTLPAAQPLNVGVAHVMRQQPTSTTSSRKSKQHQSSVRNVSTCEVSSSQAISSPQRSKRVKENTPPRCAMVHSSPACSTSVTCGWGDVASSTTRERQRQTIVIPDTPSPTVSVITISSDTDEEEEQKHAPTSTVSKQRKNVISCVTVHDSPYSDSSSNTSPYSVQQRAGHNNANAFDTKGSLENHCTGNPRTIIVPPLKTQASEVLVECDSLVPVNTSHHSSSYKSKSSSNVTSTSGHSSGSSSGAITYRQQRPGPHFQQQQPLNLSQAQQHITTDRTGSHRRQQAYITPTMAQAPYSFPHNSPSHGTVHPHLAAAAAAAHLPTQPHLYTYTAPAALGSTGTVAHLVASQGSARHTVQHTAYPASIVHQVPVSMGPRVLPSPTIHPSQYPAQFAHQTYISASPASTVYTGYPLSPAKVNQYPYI
# Fyn(h) = target: T6, Fyn(h) (Homo sapiens, UniProt P06241)
# T6 construct: purchased Eurofins (KinaseProfiler)
# T6 sequence (P06241 whole entry): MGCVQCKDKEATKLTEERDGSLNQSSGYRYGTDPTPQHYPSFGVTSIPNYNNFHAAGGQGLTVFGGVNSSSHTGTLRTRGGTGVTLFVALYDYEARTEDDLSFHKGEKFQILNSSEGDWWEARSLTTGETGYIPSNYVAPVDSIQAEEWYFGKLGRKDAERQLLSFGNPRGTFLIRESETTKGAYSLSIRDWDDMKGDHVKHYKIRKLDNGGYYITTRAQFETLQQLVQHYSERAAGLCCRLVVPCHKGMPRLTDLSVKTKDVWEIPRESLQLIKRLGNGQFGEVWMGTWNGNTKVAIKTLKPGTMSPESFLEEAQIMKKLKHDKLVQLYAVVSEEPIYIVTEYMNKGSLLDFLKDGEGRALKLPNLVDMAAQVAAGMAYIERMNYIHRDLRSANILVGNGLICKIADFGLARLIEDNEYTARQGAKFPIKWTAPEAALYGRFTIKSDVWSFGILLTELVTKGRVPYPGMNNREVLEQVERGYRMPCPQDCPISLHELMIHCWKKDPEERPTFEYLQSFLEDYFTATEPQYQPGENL
# ARK5(h) = target: T7, ARK5(h) (Homo sapiens, UniProt O60285)
# T7 construct: purchased Eurofins (KinaseProfiler)
# T7 sequence (O60285 1-661): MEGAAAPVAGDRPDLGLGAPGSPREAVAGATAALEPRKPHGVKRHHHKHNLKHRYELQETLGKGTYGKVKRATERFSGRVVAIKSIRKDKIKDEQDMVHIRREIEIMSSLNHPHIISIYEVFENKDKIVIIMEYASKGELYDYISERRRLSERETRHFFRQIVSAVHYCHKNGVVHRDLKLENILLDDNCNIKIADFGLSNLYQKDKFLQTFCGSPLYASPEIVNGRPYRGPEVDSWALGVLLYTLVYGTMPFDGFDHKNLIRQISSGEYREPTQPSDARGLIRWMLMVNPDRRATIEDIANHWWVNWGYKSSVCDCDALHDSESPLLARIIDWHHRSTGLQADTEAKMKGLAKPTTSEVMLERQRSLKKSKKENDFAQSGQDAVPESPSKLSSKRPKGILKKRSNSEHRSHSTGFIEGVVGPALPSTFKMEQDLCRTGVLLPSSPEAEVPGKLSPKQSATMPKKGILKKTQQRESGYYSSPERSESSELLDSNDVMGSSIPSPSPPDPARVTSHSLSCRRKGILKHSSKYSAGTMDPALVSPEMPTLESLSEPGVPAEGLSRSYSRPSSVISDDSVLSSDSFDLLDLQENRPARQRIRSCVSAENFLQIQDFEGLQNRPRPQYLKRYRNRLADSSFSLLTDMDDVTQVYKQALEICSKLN
# TrkC(h) = target: T8, TrkC(h) (Homo sapiens, UniProt Q16288)
# T8 construct: purchased Eurofins (KinaseProfiler)
# TTBK2(h) = target: T9, TTBK2(h) (Homo sapiens, UniProt Q6IQ55)
# T9 construct: purchased Eurofins (KinaseProfiler)
# T9 sequence (Q6IQ55 whole entry): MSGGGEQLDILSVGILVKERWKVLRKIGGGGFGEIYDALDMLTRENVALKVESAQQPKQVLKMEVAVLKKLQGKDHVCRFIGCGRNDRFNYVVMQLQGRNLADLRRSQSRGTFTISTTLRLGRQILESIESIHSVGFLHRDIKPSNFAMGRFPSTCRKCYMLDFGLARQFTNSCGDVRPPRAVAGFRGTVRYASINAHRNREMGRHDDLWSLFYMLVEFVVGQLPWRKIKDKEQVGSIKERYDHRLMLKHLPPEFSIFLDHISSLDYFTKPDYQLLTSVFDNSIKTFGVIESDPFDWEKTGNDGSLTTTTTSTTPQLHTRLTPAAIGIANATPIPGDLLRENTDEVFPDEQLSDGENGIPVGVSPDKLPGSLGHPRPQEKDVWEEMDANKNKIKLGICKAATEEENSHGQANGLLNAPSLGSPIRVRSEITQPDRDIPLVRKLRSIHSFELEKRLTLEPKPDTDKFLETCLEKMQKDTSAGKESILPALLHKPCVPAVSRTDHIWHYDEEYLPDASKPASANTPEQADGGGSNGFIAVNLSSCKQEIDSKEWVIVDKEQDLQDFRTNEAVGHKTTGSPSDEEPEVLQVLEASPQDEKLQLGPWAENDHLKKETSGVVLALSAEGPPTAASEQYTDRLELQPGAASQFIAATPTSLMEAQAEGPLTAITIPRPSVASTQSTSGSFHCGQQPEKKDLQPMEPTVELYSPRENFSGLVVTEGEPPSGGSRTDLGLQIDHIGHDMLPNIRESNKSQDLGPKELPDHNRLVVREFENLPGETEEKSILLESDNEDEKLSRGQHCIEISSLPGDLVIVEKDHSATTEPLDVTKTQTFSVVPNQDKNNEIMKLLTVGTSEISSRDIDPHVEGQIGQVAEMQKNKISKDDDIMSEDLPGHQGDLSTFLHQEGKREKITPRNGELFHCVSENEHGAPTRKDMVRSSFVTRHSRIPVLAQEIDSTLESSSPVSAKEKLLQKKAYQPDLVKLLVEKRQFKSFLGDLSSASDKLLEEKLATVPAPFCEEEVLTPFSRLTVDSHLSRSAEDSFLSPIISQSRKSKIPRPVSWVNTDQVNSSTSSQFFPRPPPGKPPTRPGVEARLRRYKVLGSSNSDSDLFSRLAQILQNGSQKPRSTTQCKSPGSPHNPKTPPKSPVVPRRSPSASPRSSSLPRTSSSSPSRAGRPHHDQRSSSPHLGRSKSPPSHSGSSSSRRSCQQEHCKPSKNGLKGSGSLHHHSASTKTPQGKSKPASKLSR
# Yes(h) = target: T10, Yes(h) (Homo sapiens, UniProt P07947)
# T10 construct: purchased Eurofins (KinaseProfiler)
# Wee1B(h) = target: T11, Wee1B(h) (Homo sapiens, UniProt P0C1S8)
# T11 construct: purchased Eurofins (KinaseProfiler)
# T11 sequence (P0C1S8 whole entry): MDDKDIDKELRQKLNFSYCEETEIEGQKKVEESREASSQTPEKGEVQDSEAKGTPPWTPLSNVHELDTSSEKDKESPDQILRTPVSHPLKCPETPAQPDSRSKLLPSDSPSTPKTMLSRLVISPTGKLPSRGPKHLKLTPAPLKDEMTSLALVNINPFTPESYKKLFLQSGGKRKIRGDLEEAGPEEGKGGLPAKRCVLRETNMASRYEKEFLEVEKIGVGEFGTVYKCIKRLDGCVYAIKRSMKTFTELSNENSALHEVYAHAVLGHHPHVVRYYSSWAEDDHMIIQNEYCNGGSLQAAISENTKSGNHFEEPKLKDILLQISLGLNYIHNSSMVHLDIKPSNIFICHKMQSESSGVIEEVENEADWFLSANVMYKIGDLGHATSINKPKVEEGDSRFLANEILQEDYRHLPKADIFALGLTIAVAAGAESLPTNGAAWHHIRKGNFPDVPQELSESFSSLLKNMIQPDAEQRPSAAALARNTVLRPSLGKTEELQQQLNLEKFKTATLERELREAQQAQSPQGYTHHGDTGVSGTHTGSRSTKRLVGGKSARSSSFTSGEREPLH
# CaMKIδ(h) = target: T12, CaMKIδ(h) (Homo sapiens, UniProt Q8IU85)
# T12 construct: purchased Eurofins (KinaseProfiler)
# T12 sequence (Q8IU85 whole entry): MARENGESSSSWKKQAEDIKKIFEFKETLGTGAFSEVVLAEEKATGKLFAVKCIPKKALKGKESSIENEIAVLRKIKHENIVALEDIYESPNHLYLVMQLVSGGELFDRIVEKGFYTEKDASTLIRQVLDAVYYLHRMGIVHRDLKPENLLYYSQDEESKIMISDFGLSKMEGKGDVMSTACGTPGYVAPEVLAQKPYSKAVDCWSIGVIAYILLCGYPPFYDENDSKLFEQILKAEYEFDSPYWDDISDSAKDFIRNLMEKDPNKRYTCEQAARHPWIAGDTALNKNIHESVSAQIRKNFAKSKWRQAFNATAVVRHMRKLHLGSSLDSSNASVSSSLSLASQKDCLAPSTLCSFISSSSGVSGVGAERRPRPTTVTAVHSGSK
# T2 sequence (P04049 whole entry): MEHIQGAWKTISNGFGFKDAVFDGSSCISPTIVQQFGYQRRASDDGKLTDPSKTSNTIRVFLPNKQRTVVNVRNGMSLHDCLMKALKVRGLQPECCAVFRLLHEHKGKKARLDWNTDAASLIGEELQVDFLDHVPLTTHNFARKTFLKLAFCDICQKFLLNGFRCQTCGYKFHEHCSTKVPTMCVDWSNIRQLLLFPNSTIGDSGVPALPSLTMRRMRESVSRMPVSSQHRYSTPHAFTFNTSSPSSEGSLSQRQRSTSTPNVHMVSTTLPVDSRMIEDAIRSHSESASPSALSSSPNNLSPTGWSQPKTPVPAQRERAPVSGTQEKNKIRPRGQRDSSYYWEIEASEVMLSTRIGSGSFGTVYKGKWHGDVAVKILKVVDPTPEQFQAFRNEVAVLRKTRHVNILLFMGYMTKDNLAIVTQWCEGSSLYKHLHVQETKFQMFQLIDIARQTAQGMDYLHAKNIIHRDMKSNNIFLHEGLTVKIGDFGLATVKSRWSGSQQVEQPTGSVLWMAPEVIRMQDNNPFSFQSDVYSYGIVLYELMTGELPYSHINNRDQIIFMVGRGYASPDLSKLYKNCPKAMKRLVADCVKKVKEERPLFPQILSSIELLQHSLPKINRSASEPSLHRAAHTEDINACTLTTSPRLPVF
structure (smiles),measurement,setting,value
COc1cc(OC)c(Cl)c(-c2ccc3c(NC(=O)c4ccc(N5CCNC(C)(C)C5)cc4)n[nH]c3n2)c1Cl [3D185],inhibition at 0.01 µM,AMPKα1(h); 10 nM,-8%
same,inhibition at 0.1 µM,AMPKα1(h); 100 nM,-6%
same,inhibition at 1 µM,AMPKα1(h); 1000 nM,-13%
same,inhibition at 0.01 µM,c-RAF(h); 10 nM,13%
same,inhibition at 0.1 µM,c-RAF(h); 100 nM,14%
same,inhibition at 1 µM,c-RAF(h); 1000 nM,5%
same,inhibition at 0.01 µM,CaMKIIβ(h); 10 nM,-1%
same,inhibition at 0.1 µM,CaMKIIβ(h); 100 nM,-3%
same,inhibition at 1 µM,CaMKIIβ(h); 1000 nM,-4%
same,inhibition at 0.01 µM,BMPR2(h); 10 nM,5%
same,inhibition at 0.1 µM,BMPR2(h); 100 nM,-2%
same,inhibition at 1 µM,BMPR2(h); 1000 nM,4%
same,inhibition at 0.01 µM,HIPK2(h); 10 nM,3%
same,inhibition at 0.1 µM,HIPK2(h); 100 nM,6%
same,inhibition at 1 µM,HIPK2(h); 1000 nM,-10%
same,inhibition at 0.01 µM,Fyn(h); 10 nM,8%
same,inhibition at 0.1 µM,Fyn(h); 100 nM,27%
same,inhibition at 1 µM,Fyn(h); 1000 nM,80%
same,inhibition at 0.01 µM,ARK5(h); 10 nM,11%
same,inhibition at 0.1 µM,ARK5(h); 100 nM,16%
same,inhibition at 1 µM,ARK5(h); 1000 nM,13%
same,inhibition at 0.01 µM,TrkC(h); 10 nM,36%
same,inhibition at 0.1 µM,TrkC(h); 100 nM,85%
same,inhibition at 1 µM,TrkC(h); 1000 nM,98%
same,inhibition at 0.01 µM,TTBK2(h); 10 nM,-4%
same,inhibition at 0.1 µM,TTBK2(h); 100 nM,-11%
same,inhibition at 1 µM,TTBK2(h); 1000 nM,-9%
same,inhibition at 0.01 µM,Yes(h); 10 nM,10%
same,inhibition at 0.1 µM,Yes(h); 100 nM,66%
same,inhibition at 1 µM,Yes(h); 1000 nM,97%
same,inhibition at 0.01 µM,Wee1B(h); 10 nM,9%
same,inhibition at 0.1 µM,Wee1B(h); 100 nM,-2%
same,inhibition at 1 µM,Wee1B(h); 1000 nM,9%
same,inhibition at 0.01 µM,CaMKIδ(h); 10 nM,0%
same,inhibition at 0.1 µM,CaMKIδ(h); 100 nM,23%
same,inhibition at 1 µM,CaMKIδ(h); 1000 nM,76%
